Laboratory results from patent US20120101093A1, “SUBSTITUTED IMIDAZO[1,2-A]PYRIDINE DERIVATIVES, PHARMACEUTICAL COMPOSITIONS, AND METHODS OF USE AS BETA-SECRETASE INHIBITORS” (HIGH POINT PHARMACEUTICALS, LLC, priority 2009, published 2012).

What was measured:
BACE-1 enzyme = target: T1, BACE-1 enzyme (Homo sapiens, UniProt P56817); assay: BACE Fluorescence Resonance Energy Transfer (FRET) Assay; format: biochemical; details: pH 4-4.5, 30 min pre-incubation, about 1.5 hours reaction
T1 construct: purchased R & D Systems 931AS
Procedure, shortened: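 Fluorescence (ex 540, em 585 nm) after ~1.5 h room-temperature cleavage of a quenched rhodamine peptide tracks BACE-1 activity. Enzyme and compound first sit 30 min in pH 4-4.5 acetate buffer with CHAPS, Triton X-100, EDTA, 7.5% DMSO. Values given as IC50 or % inhibition.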

[1] = test system: Aβ1-40 secreted from HEK293 cells stably expressing wildtype human APP695 protein (HEK-APPwt cells); assay: Aβ Cell Based Assay (Aβ1-40 secretion, ELISA); details: Homo sapiens, HEK293, 6 h, 6 hours incubation, reduction of Aβ1-40 secretion
Procedure, shortened: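 Cells in DMEM with 2% FBS exposed to ten compound concentrations for 6 h at 37 °C. Secreted Aβ1-40 in supernatant quantified by sandwich ELISA (82E1 capture, TMB, OD450). EC50 from percent inhibition, DAPT defining 100% inhibition, non-linear fit.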

T1 sequence (P56817 46-457 limits assumed): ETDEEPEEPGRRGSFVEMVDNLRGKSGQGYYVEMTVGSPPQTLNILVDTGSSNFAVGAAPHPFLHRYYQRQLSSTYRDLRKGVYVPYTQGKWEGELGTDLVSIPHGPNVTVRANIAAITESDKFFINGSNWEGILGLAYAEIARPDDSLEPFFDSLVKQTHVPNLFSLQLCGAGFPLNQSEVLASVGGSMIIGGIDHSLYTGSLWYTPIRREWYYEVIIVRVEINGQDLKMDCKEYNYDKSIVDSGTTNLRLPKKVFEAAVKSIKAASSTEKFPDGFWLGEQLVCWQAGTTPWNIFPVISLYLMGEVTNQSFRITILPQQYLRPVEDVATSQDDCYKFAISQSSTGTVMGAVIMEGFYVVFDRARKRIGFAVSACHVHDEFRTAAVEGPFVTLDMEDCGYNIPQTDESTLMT

| SMILES | IC50 (BACE-1 enzyme) [µM] | EC50 [1] [µM] |
| --- | --- | --- |
| CN1CC=C(c2cccc3nc(C(=O)Nc4nc5cc(-c6cccc(C(F)(F)F)c6)ccc5[nH]4)cn23)CC1 [Example 215, 5-(1-methyl-1,2,3,6-tetrahydropyridin-4-yl)-N-{5-[3-(trifluoromethyl)phenyl]-1H-benzimidazol-2-yl}imidazo[1,2-a]pyridine-2-carboxamide] | 0.41 | 5.35 |
| CN1CCC(c2cccc3nc(C(=O)Nc4nc5cc(-c6cccc(C(F)(F)F)c6)ccc5[nH]4)cn23)CC1 [Example 219, 5-(1-methylpiperidin-4-yl)-N-{5-[3-(trifluoromethyl)phenyl]-1H-benzimidazol-2-yl}imidazo[1,2-a]pyridine-2-carboxamide] | 0.9 | 7.48 |
| CNC(=O)c1cccc2nc(C(=O)Nc3nc4cc(-c5cc(F)cc(Cl)c5)ccc4[nH]3)cn12 [Example 226, Imidazo[1,2-a]pyridine-2,5-dicarboxylic acid 2-{[5-(3-chloro-5-fluoro-phenyl)-1H-benzoimidazol-2-yl]-amide} 5-methylamide] | 0.29 | 2.14 |
| CN(C)C(=O)c1cccc2nc(C(=O)Nc3nc4cc(-c5cc(F)cc(Cl)c5)ccc4[nH]3)cn12 [Example 227, Imidazo[1,2-a]pyridine-2,5-dicarboxylic acid 2-{[5-(3-chloro-5-fluoro-phenyl)-1H-benzoimidazol-2-yl]-amide} 5-dimethylamide] | 0.31 | 1.65 |
| COCCNC(=O)c1cccc2nc(C(=O)Nc3nc4cc(-c5cc(F)cc(Cl)c5)ccc4[nH]3)cn12 [Example 228] | 0.28 | 1.34 |

Continued by falling IC50 (BACE-1 enzyme), values first:

| IC50 (BACE-1 enzyme) [µM] | SMILES | EC50 [1] [µM] |
| --- | --- | --- |
| 0.69 | O=C(Nc1nc2cc(-c3cccc(C(F)(F)F)c3)ccc2[nH]1)c1cn2ccc(CNC(CO)Cc3ccccc3)cc2n1 (stereo not shown) [Example 207, 7-[(1-Benzyl-2-hydroxy-ethylamino)-methyl]-imidazo[1,2-a]pyridine-2-carboxylic acid [5-(3-trifluoromethyl-phenyl)-1H-benzoimidazol-2-yl]-amide] | 7.65 |
| 0.46 | O=C(Nc1nc2cc(-c3cccc(C(F)(F)F)c3)ccc2[nH]1)c1cn2c(C3=CCNCC3)cccc2n1 [Example 214, 5-(1,2,3,6-tetrahydropyridin-4-yl)-N-{5-[3-(trifluoromethyl)phenyl]-1H-benzimidazol-2-yl}imidazo[1,2-a]pyridine-2-carboxamide] | 5.12 |
| 0.22 | COCCCNCc1ccn2cc(C(=O)Nc3nc4cc(-c5cccc(C(F)(F)F)c5)ccc4[nH]3)nc2c1 [Example 209, 7-[(3-Methoxy-propylamino)-methyl]-imidazo[1,2-a]pyridine-2-carboxylic acid [5-(3-trifluoromethyl-phenyl)-1H-benzoimidazol-2-yl]-amide] | 4.91 |
